Assays:
[1] = Paramagnetic relaxation properties in water at 10 MHz (0.15T), RADX spin analyzer; format: physicochemical; details: for Relaxivity (mM⁻¹sec⁻¹) Spin-Lattice / Relaxivity (mM⁻¹sec⁻¹) Spin-Spin / spin-lattice (T₁) relaxation value / spin-spin (T₂) relaxation value / millimolar relaxivity for T₁ / millimolar relaxivity for T₂: 10 MHz (0.15T); for Spin-Spin Relaxivity: 0.15 T (10 MHz); for millimolar relaxivity for T₁ / millimolar relaxivity for T₂: in water; for millimolar relaxivity for T₁: calculated from T₁ and concentration; for millimolar relaxivity for T₂: calculated from T₂ and concentration
Protocol: The paramagnetic relaxation properties of [manganese(II)·(H₂O)₂·(L-alanine)₂]⁺²(Cl₂)⁻² in water were measured at 10 MHz (0.15T) with a spin analyzer (RADX; Houston, TX) at 37°C. After thermal equilibrium, the spin-lattice (T₁) and spin-spin (T₂) relaxation values were measured in triplicate.
The paramagnetic relaxation of the title compound in water was measured at 10 MHz (0.15T) with a spin analyzer (RADX; Houston, TX). After thermal equilibrium, the spin-lattice (T₁) and spin-spin (T₂) relaxation values were measured.
Relaxivity was measured at 10 MHz (0.15T) as described in Example 10.
The relaxivity of the title compound was performed at 0.15 T (10 MHz) with a RADX Spin Analyzer (Houston, TX) at 37°C.

[2] = Paramagnetic relaxation properties in human plasma at 37°C; format: physicochemical; details: for T₂ value / T₁ value / R₁ / R₂ / T₁ changed by (repeat measurement) / T₂ changed by (repeat measurement): 37°C; for T₁ value: triplicate; for T₁ changed by (repeat measurement) / T₂ changed by (repeat measurement): repeat measurement 80 minutes later; for T₂ relaxivity in plasma, fold greater than GdDTPA: versus GdDTPA; for T₁ relaxivity in plasma, fold greater than GdDTPA: versus gadolinium diethylenetriaminepentaacetic acid chelate (GdDTPA)
[3] = 0.97 mM solution in water, 37°C, triplicate, mean +/- SD
[4] = 0.90 mM solution in water, 37°C, triplicate, mean +/- SD
[5] = 0.99 mM solution in water, 37°C, triplicate, mean +/- SD
[6] = 0.94 mM solution in water, 37°C, triplicate, mean +/- SD
[7] = 0.98 mM solution in water, 37°C, triplicate, mean +/- SD
[8] = 0.68 mM solution in water, 37°C, triplicate, mean +/- SD

Row | Compound | R₁ [2] [mM⁻¹ s⁻¹] | R₂ [2] [mM⁻¹ s⁻¹] | T₁ changed by (repeat measurement) [2] | T₂ changed by (repeat measurement) [2] [%] | T₂ relaxivity in plasma, fold greater than GdDTPA [2] [fold] | T₁ relaxivity in plasma, fold greater than GdDTPA [2] [fold] | millimolar relaxivity for T₁ [1] [mM⁻¹ s⁻¹] | millimolar relaxivity for T₂ [1] [mM⁻¹ s⁻¹] | also measured
1 | CC(=O)[O-].CC(=O)[O-].O.O.O.O.[Mn+2] [[Manganese(II)·(H₂O)₄]Diacetate, reference compound] |  |  |  |  |  |  |  |  | Relaxivity (mM⁻¹sec⁻¹) Spin-Lattice ([1]; 1 mM solution in water): 9.09 mM⁻¹ s⁻¹; Relaxivity (mM⁻¹sec⁻¹) Spin-Spin ([1]; 1 mM solution in water): 33.3 mM⁻¹ s⁻¹; Spin-Spin Relaxivity ([1]; 37°C): 33.30 mM⁻¹ s⁻¹
2 | NCC(=O)O.N[C@@H](CO)C(=O)O.N[C@@H](Cc1c[nH]cn1)C(=O)O.O=C(O)[C@@H]1CCCN1.O=S(=O)([O-])[O-].[Mn+2] [[Manganese(II)·Glycine·L-Serine·L-Histidine·L-Proline](Sulfate)] |  |  |  |  |  |  | 9.71 | 35.7 | spin-lattice (T₁) relaxation value ([1]; 1 mM solution in water): 103 ms; spin-spin (T₂) relaxation value ([1]; 1 mM solution in water): 28 ms
3 | N[C@@H](CC(=O)O)C(=O)O.N[C@@H](CC(=O)O)C(=O)O.O.O.[Cl-].[Cl-].[Mn+2] [Manganese(II)·(H₂O)₂·(L-aspartic acid)₂]⁺²(Cl₂)⁻²] | 46.3 | 61.2 | did not change | 3 | 12.8 | 9.7 | 9.58 | 39.7 | T₂ value ([2]; 86 µM final concentration): 190 ± 12 ms; T₁ value ([2]; 86 µM final concentration): 251 ± 12 ms; spin-lattice (T₁) relaxation value [1, 4]: 116 ± 3 ms; spin-spin (T₂) relaxation value [1, 4]: 28 ± 1 ms
4 | CC(=O)[O-].CC(=O)[O-].NCC(=O)O.NCC(=O)O.NCC(=O)O.NCC(=O)O.[Mn+2] [[Manganese(II)·(Glycine)₄]Diacetate] |  |  |  |  |  |  |  |  | Relaxivity (mM⁻¹sec⁻¹) Spin-Lattice ([1]; 1 mM solution in water): 8.00 mM⁻¹ s⁻¹; Relaxivity (mM⁻¹sec⁻¹) Spin-Spin ([1]; 1 mM solution in water): 33.3 mM⁻¹ s⁻¹
5 | [Manganese(II)(H₂O)₂(L-serine)₂](Glycerophosphate) |  |  |  |  |  |  | 6.80 | 18.5 | spin-lattice (T₁) relaxation value ([1]; 1 mM solution in water): 147 ms; spin-spin (T₂) relaxation value ([1]; 1 mM solution in water): 54 ms
6 | N[C@@H](Cc1ccc(O)cc1)C(=O)O.N[C@@H](Cc1ccc(O)cc1)C(=O)O.O.O.[Cl-].[Cl-].[Mn+2] [[Manganese(II)·(H₂O)₂·(L-tyrosine)₂]⁺²(Cl₂)⁻²] | 49.3 | 71.6 | 5% | 9 | 14.8 | 10.3 | 9.94 | 38.7 | T₂ value ([2]; 65 µM final concentration): 216 ± 2 ms; T₁ value ([2]; 65 µM final concentration): 312 ± 20 ms; spin-lattice (T₁) relaxation value [1, 8]: 148 ± 1 ms; spin-spin (T₂) relaxation value [1, 8]: 38 ± 1 ms
7 | CC(=O)[O-].CC(=O)[O-].NCC(=O)O.NCC(=O)O.NCC(=O)O.O.[Mn+2] [[Manganese(II)·(H₂O)·(Glycine)₃]Diacetate] |  |  |  |  |  |  |  |  | Relaxivity (mM⁻¹sec⁻¹) Spin-Lattice ([1]; 1 mM solution in water): 8.47 mM⁻¹ s⁻¹; Relaxivity (mM⁻¹sec⁻¹) Spin-Spin ([1]; 1 mM solution in water): 33.3 mM⁻¹ s⁻¹
8 | CC(=O)[O-].CC(=O)[O-].NCC(=O)O.O.O.O.[Mn+2] [[Manganese(II)·(H₂O)₃]·(Glycine)]Diacetate] |  |  |  |  |  |  |  |  | Relaxivity (mM⁻¹sec⁻¹) Spin-Lattice ([1]; 1 mM solution in water): 8.26 mM⁻¹ s⁻¹; Relaxivity (mM⁻¹sec⁻¹) Spin-Spin ([1]; 1 mM solution in water): 33.3 mM⁻¹ s⁻¹; Spin-Spin Relaxivity ([1]; 37°C): 33.30 mM⁻¹ s⁻¹
9 | NCC(=O)[O-].NCC(=O)[O-].O.O.O.O.O.O.O=S(=O)([O-])[O-].[Mn+2].[Mn+2] [[Manganese(II)·CH₂(NH₂)COO-]₂⁺¹(SO₄^=), reference compound] |  |  |  |  |  |  |  |  | Spin-Spin Relaxivity ([1]; 37°C): 2.92 mM⁻¹ s⁻¹
10 | CC(=O)[O-].C[C@H](N)C(=O)O.C[C@H](N)C(=O)O.C[C@H](N)C(=O)O.O.[I-].[Mn+2] [[Manganese(II)H₂O(L-Alanine)₃](Acetate Iodide)] |  |  |  |  |  |  | 9.62 | 38.5 | spin-lattice (T₁) relaxation value ([1]; 1 mM solution in water): 104 ms; spin-spin (T₂) relaxation value ([1]; 1 mM solution in water): 26 ms

Further lines, with some results ahead:

Row | R₁ [2] [mM⁻¹ s⁻¹] | R₂ [2] [mM⁻¹ s⁻¹] | T₁ changed by (repeat measurement) [2] | T₂ changed by (repeat measurement) [2] [%] | T₂ relaxivity in plasma, fold greater than GdDTPA [2] [fold] | T₁ relaxivity in plasma, fold greater than GdDTPA [2] [fold] | millimolar relaxivity for T₁ [1] [mM⁻¹ s⁻¹] | millimolar relaxivity for T₂ [1] [mM⁻¹ s⁻¹] | Compound | also measured
11 | 42.3 | 52.8 | 1% | 5 | 11.2 | 8.8 | 9.73 | 38.2 | CSCC[C@H](N)C(=O)O.CSCC[C@H](N)C(=O)O.O.O.[Cl-].[Cl-].[Mn+2] [Manganese(II)·(H₂O)₂·(L-methionine)₂]⁺²(Cl₂)⁻²] | T₂ value ([2]; 92 µM final concentration): 202 ± 9 ms; T₁ value ([2]; 92 µM final concentration): 257 ± 18 ms; spin-lattice (T₁) relaxation value [1, 3]: 106 ± 2 ms; spin-spin (T₂) relaxation value [1, 3]: 27 ± 1 ms
12 | 45.1 | 55.5 | 1% | 11 | 11.6 | 9.4 | 9.82 | 36.8 | C[C@@H](O)[C@H](N)C(=O)O.C[C@@H](O)[C@H](N)C(=O)O.O.O.[Cl-].[Cl-].[Mn+2] [Manganese(II)·(H₂O)₂·(L-threonine)₂]⁺²(Cl₂)⁻²] | T₂ value ([2]; 92 µM final concentration): 196 ± 17 ms; T₁ value ([2]; 92 µM final concentration): 241 ± 7 ms; spin-lattice (T₁) relaxation value [1, 3]: 105 ± 1 ms; spin-spin (T₂) relaxation value [1, 3]: 28 ± 1 ms
13 | 44.7 | 56.9 | 3% | 1 | 11.9 | 9.3 | 9.81 | 39.3 | C[C@H](N)C(=O)O.C[C@H](N)C(=O)O.O.O.[Cl-].[Cl-].[Mn+2] [[Manganese(II)·(H₂O)₂·(L-alanine)₂]⁺²(Cl₂)⁻²] | T₂ value ([2]; 94 µM final concentration): 187 ± 3 ms; T₁ value ([2]; 94 µM final concentration): 238 ± 11 ms; spin-lattice (T₁) relaxation value [1, 5]: 104 ± 9 ms; spin-spin (T₂) relaxation value [1, 5]: 26 ± 1 ms
14 | 45.7 | 57.9 | 5% | 4 | 12.1 | 9.5 | 9.33 | 39.4 | CC(C)C[C@H](N)C(=O)O.CC(C)C[C@H](N)C(=O)O.O.O.[Cl-].[Cl-].[Mn+2] [[Manganese(II)·(H₂O)₂·(L-leucine)₂]⁺²(Cl₂)⁻²] | T₂ value ([2]; 90 µM final concentration): 192 ± 0 ms; T₁ value ([2]; 90 µM final concentration): 243 ± 13 ms; spin-lattice (T₁) relaxation value [1, 6]: 114 ± 9 ms; spin-spin (T₂) relaxation value [1, 6]: 27 ± 1 ms
15 | 46.5 | 53.2 | 5% | 12 | 11.1 | 9.7 | 9.63 | 39.3 | O.O.O=C(O)[C@@H]1CCCN1.O=C(O)[C@@H]1CCCN1.[Cl-].[Cl-].[Mn+2] [Manganese(II)·(H₂O)₂·(L-proline)₂]⁺²(Cl₂)⁻²] | T₂ value ([2]; 93 µM final concentration): 202 ± 12 ms; T₁ value ([2]; 93 µM final concentration): 234 ± 12 ms; spin-lattice (T₁) relaxation value [1, 7]: 106 ± 4 ms; spin-spin (T₂) relaxation value [1, 7]: 26 ± 2 ms
16 |  |  |  |  |  |  | 9.35 | 37.0 | NC(CO)C(=O)O.O.O.O.O=C([O-])C(O)C(O)C(O)C(O)CO.O=C([O-])C(O)C(O)C(O)C(O)CO.[Mn+2] [[Manganese(II)(H₂O)₃-L-Serine]Digluconate] | spin-lattice (T₁) relaxation value ([1]; 1 mM solution in water): 107 ms; spin-spin (T₂) relaxation value ([1]; 1 mM solution in water): 27 ms
17 | 43.5 | 56.9 | 4% | 4 | 11.9 | 9.1 | 9.12 | 39.7 | CC(C)[C@H](N)C(=O)O.CC(C)[C@H](N)C(=O)O.O.O.[Cl-].[Cl-].[Mn+2] [Manganese(II)·(H₂O)₂·(L-valine)₂]⁺²(Cl₂)⁻²] | T₂ value ([2]; 92 µM final concentration): 191 ± 8 ms; T₁ value ([2]; 92 µM final concentration): 250 ± 2 ms; spin-lattice (T₁) relaxation value [1, 3]: 113 ± 10 ms; spin-spin (T₂) relaxation value [1, 3]: 26 ± 1 ms

Reference: patent EP0308983A2, “NMR imaging with Mn(II) coordination compositions” (priority 1987, dated 1989)
